Source: patent US9617256B2 (priority 2007, dated 2017)
In brackets after ≈: the same amount, converted by molar mass.

What was measured:
AECO001 (ATCC25922) = experiment: MIC broth microdilution, AECO001; format: cell-based, E. coli; details: Escherichia coli, ATCC25922, read-out: MIC AECO001
How it was run: (§1)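 CLSI-guided microdilution: bacteria passaged overnight at 35° C. on Mueller-Hinton agar, tested in cation-adjusted broth at a final 3×10^5–7×10^5 CFU/mL across 2-fold drug dilutions, read after 18-24 h at 35° C.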

[1] = tested on: AECO063 (ATCC25922 bearing an acrAB mutation); experiment: microbe, parasite or virus in culture; format: cell-based, E. coli; details: Escherichia coli, ATCC25922, read-out: MIC AECO063
How it was run: as §1

[2] = tested on: APAE006 (strain of P. aeruginosa in which all efflux pumps are inactivated); experiment: microbe, parasite or virus in culture; format: cell-based; details: Pseudomonas aeruginosa, read-out: MIC APAE006, P. aeruginosa, all efflux pumps inactivated
How it was run: (§2)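 Growth inhibition was scored by CLSI broth microdilution using cation-adjusted Mueller-Hinton broth and a final inoculum between 3×10^5 and 7×10^5 CFU/mL, incubated 18-24 hours at 35° C.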

[3] = tested on: APAE006 in the presence of 8 micrograms per milliliter of polymyxin B nonapeptide; format: cell-based, P. aeruginosa; details: in the presence of 8 micrograms per milliliter of polymyxin B nonapeptide
How it was run: as §2

[4] = tested on: AABA1060 (clinical isolate of Acinetobacter baumannii); experiment: MIC broth microdilution, AABA1060; format: cell-based; details: Acinetobacter baumannii, read-out: MIC AABA1060
How it was run: as §1

APAE001 (ATCC27853) = experiment: MIC broth microdilution, APAE001; format: cell-based, P. aeruginosa; details: Pseudomonas aeruginosa, ATCC27853, read-out: MIC APAE001, APAE001 is ATCC27853
How it was run: as §1

[5] = tested on: ASAU001 (laboratory strain of S. aureus, ATCC29213); experiment: MIC broth microdilution, ASAU001; format: cell-based; details: Staphylococcus aureus, ATCC29213, read-out: MIC ASAU001
How it was run: as §1

AECO001 HSA AGP = experiment: MIC broth microdilution, AECO001 HSA AGP; format: cell-based, E. coli; details: Escherichia coli
Method: Bacterial isolates were cultivated from −70° C. frozen stocks by overnight passages at 35° C. in ambient air on Mueller-Hinton agar (Beckton Dickinson, Franklin Lakes, N.J.). Clinical isolates tested were obtained from various geographically diverse hospitals in the US and abroad (Focus Diagnostics, Herndon, Va. and JMI, North Liberty, Iowa). Quality control strains were from the American Type Culture Collection (ATCC; Rockville, Md.). Additional primary panel strains were generated using standard molecular biology techniques.
Minimum Inhibitory Concentrations (MICs) were determined by the broth microdilution method in accordance with the Clinical and Laboratory Standards Institute (CLSI) guidelines. In brief, organism suspensions were adjusted to a 0.5 McFarland standard to yield a final inoculum between 3×10^5 and 7×10^5 colony-forming units (CFU)/mL. Drug dilutions and inocula were made in sterile, cation adjusted Mueller-Hinton Broth (Beckton Dickinson). An inoculum volume of 100 μL was added to wells containing 100 μL of broth with 2-fold serial dilutions of drug. All inoculated microdilution trays were incubated in ambient air at 35° C. for 18-24 hours. […] Performance of the assay was monitored by the use of laboratory quality-control strains and levofloxacin, a compound with a defined MIC spectrum, in accordance with CLSI guidelines.
*AECO001 is ATCC25922, AECO063 is ATCC25922 bearing an acrAB mutation, APAE001 is ATCC27853, APAE006 is a strain of P. aeruginosa in which all efflux pumps are inactivated, APAE006+PMBN indicates MICs with the indicated strain in the presence of 8 micrograms per milliliter of polymyxin B nonapeptide, AABA1060 is a clinical isolate of Acinetobacter baumannii, ASAU001 is a laboratory strain of S. aureus (ATCC29213).

C[C@@H](O)[C@H](NC(=O)c1ccc(C#C/C=C/c2ccc(CO)cc2)cc1)C(=O)NO [Example 101-1, N-((1S,2R)-2-Hydroxy-1-hydroxycarbamoyl-propyl)-4-[(E)-4-(4-hydroxymethyl-phenyl)-but-3-en-1-ynyl]-benzamide]
MIC (AECO001 (ATCC25922)): < 2 µg/mL
MIC [1]: < 2 µg/mL
MIC [2]: < 2 µg/mL
MIC APAE006 + PMBN [3]: A (MIC's of 2.0 μg/mL or less = A)
MIC [4]: 16 to 64 µg/mL (≈ 40.6 to 162 µM)
MIC (APAE001 (ATCC27853)): 2 to 16 µg/mL (≈ 5.07 to 40.6 µM)
MIC [5]: 16 to 64 µg/mL (≈ 40.6 to 162 µM)
MIC (AECO001 HSA AGP): 2 to 16 µg/mL (≈ 5.07 to 40.6 µM)

C[C@@H](N)[C@H](NC(=O)c1ccc(C#Cc2ccc(CNC3CCC3)cc2)cc1)C(=O)NO [Example 119-2]
MIC (AECO001 (ATCC25922)): 2 to 16 µg/mL (≈ 4.76 to 38 µM)
MIC [1]: 2 to 16 µg/mL (≈ 4.76 to 38 µM)
MIC [2]: < 2 µg/mL
MIC APAE006 + PMBN [3]: A (MIC's of 2.0 μg/mL or less = A)
MIC [4]: > 64 µg/mL
MIC (APAE001 (ATCC27853)): < 2 µg/mL
MIC [5]: > 64 µg/mL
MIC (AECO001 HSA AGP): 16 to 64 µg/mL (≈ 38 to 152 µM)

C[C@@H](N)[C@H](NC(=O)c1ccc(C#CC#Cc2cccc(F)c2)cc1)C(=O)NO [Example 82-5]
MIC (AECO001 (ATCC25922)): < 2 µg/mL
MIC [1]: < 2 µg/mL
MIC [2]: < 2 µg/mL
MIC APAE006 + PMBN [3]: A (MIC's of 2.0 μg/mL or less = A)
MIC [4]: 2 to 16 µg/mL (≈ 5.27 to 42.2 µM)
MIC (APAE001 (ATCC27853)): < 2 µg/mL
MIC [5]: 2 to 16 µg/mL (≈ 5.27 to 42.2 µM)
MIC (AECO001 HSA AGP): 2 to 16 µg/mL (≈ 5.27 to 42.2 µM)

O=C(N[C@H](C(=O)NO)c1ccccc1)c1ccc(/C=C/C#Cc2ccc(CN3CCOCC3)cc2)cc1 [Example 110-11]
MIC (AECO001 (ATCC25922)): < 2 µg/mL
MIC [1]: < 2 µg/mL
MIC [2]: < 2 µg/mL
MIC APAE006 + PMBN [3]: A (MIC's of 2.0 μg/mL or less = A)
MIC [4]: 16 to 64 µg/mL (≈ 32.3 to 129 µM)
MIC (APAE001 (ATCC27853)): 16 to 64 µg/mL (≈ 32.3 to 129 µM)
MIC [5]: 16 to 64 µg/mL (≈ 32.3 to 129 µM)
MIC (AECO001 HSA AGP): 2 to 16 µg/mL (≈ 4.04 to 32.3 µM)

C[C@@H](N)[C@H](NC(=O)c1ccc(C#Cc2ccc(CN3CCN(S(C)(=O)=O)CC3)cc2)cc1)C(=O)NO [Example 115-7]
MIC (AECO001 (ATCC25922)): < 2 µg/mL
MIC [1]: < 2 µg/mL
MIC [2]: < 2 µg/mL
MIC APAE006 + PMBN [3]: A (MIC's of 2.0 μg/mL or less = A)
MIC [4]: 2 to 16 µg/mL (≈ 3.89 to 31.2 µM)
MIC (APAE001 (ATCC27853)): 2 to 16 µg/mL (≈ 3.89 to 31.2 µM)
MIC [5]: > 64 µg/mL
MIC (AECO001 HSA AGP): 2 to 16 µg/mL (≈ 3.89 to 31.2 µM)

C[C@@H](NCC(=O)NC[C@H](NC(=O)c1ccc(C#C/C=C/c2ccccc2)cc1)C(=O)NO)c1ccccc1 [Example 105-4]
MIC (AECO001 (ATCC25922)): < 2 µg/mL
MIC [1]: < 2 µg/mL
MIC [2]: 2 to 16 µg/mL (≈ 3.92 to 31.3 µM)
MIC APAE006 + PMBN [3]: A (MIC's of 2.0 μg/mL or less = A)
MIC [4]: 16 to 64 µg/mL (≈ 31.3 to 125 µM)
MIC (APAE001 (ATCC27853)): 16 to 64 µg/mL (≈ 31.3 to 125 µM)
MIC [5]: 16 to 64 µg/mL (≈ 31.3 to 125 µM)
MIC (AECO001 HSA AGP): 2 to 16 µg/mL (≈ 3.92 to 31.3 µM)

CCOCc1ccc(C#C/C=C/c2ccc(C(=O)N[C@H](C(=O)NO)[C@@H](C)N)cc2)cc1 [Example 113-10]
MIC (AECO001 (ATCC25922)): < 2 µg/mL
MIC [1]: < 2 µg/mL
MIC [2]: < 2 µg/mL
MIC APAE006 + PMBN [3]: A (MIC's of 2.0 μg/mL or less = A)
MIC [4]: 2 to 16 µg/mL (≈ 4.74 to 38 µM)
MIC (APAE001 (ATCC27853)): 2 to 16 µg/mL (≈ 4.74 to 38 µM)
MIC [5]: 16 to 64 µg/mL (≈ 38 to 152 µM)
MIC (AECO001 HSA AGP): 2 to 16 µg/mL (≈ 4.74 to 38 µM)

CCOCc1ccc(C#Cc2ccc(C(=O)N[C@H](C(=O)NO)[C@@H](C)N)cc2)cc1 [Example 120-1, N-((1S,2R)-2-Amino-1-hydroxycarbamoyl-propyl)-4-(4-ethoxymethyl-phenylethynyl)-benzamide]
MIC (AECO001 (ATCC25922)): < 2 µg/mL
MIC [1]: < 2 µg/mL
MIC [2]: < 2 µg/mL
MIC APAE006 + PMBN [3]: A (MIC's of 2.0 μg/mL or less = A)
MIC [4]: 2 to 16 µg/mL (≈ 5.06 to 40.5 µM)
MIC (APAE001 (ATCC27853)): < 2 µg/mL
MIC [5]: 16 to 64 µg/mL (≈ 40.5 to 162 µM)
MIC (AECO001 HSA AGP): 2 to 16 µg/mL (≈ 5.06 to 40.5 µM)

O=C(N[C@@H](Cn1cncn1)C(=O)NO)c1ccc(/C=C/C#Cc2ccc(CN3CCOCC3)cc2)cc1 [Example 110-10]
MIC (AECO001 (ATCC25922)): < 2 µg/mL
MIC [1]: < 2 µg/mL
MIC [2]: < 2 µg/mL
MIC APAE006 + PMBN [3]: A (MIC's of 2.0 μg/mL or less = A)
MIC [4]: 16 to 64 µg/mL (≈ 32 to 128 µM)
MIC (APAE001 (ATCC27853)): 2 to 16 µg/mL (≈ 4 to 32 µM)
MIC [5]: 16 to 64 µg/mL (≈ 32 to 128 µM)
MIC (AECO001 HSA AGP): 2 to 16 µg/mL (≈ 4 to 32 µM)
